How the values were obtained:
[1] = Solubility determination; conditions: for Sol6: pH 6; for Sol7: pH 7
How it was run: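 Sample: TFA-salt peptide at 10 mg/ml target in 0.1 M Na diphosphate, pH 6.4 or 7.0, shaken 2 h RT, filtered, diluted to 1 mg/ml.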

[2] = molecular target: T1, Human Neuropeptide Y2 Receptor (Homo sapiens, UniProt P49146); experiment: Radioligand binding competition assay (RLB); conditions: Table 3, 125I-PYY(1-36) competition; read-out: Ki
T1 construct: purchased CHEMICON HTS066M
T1 sequence (P49146 1-381): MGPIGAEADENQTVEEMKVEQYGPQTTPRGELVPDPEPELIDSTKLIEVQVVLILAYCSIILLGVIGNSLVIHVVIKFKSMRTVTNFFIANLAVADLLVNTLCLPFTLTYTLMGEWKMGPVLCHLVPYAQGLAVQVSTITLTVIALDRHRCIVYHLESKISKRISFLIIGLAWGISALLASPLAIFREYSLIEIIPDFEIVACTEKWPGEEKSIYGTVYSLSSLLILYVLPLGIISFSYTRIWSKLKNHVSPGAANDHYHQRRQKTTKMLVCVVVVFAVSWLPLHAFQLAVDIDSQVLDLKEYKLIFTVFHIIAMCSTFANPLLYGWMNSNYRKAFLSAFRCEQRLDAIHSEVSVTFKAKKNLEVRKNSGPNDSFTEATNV
How it was run: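 Displacement of radioligand is measured after 2 h at room temperature with receptor membranes in Mg2+/Ca2+ HEPES buffer, pH 7.4. Filter-bound radioactivity is counted and IC50 obtained from curve fitting.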

SMILES | Sol6 [1] [mg/mL] | Sol7 [1] [mg/mL] | Ki [2] [nM]
CC[C@H](C)[C@H](NC(=O)[C@H](CCC(=O)O)NC(=O)[C@H](CCC(=O)O)NC(=O)[C@@H]1CCCN1C(=O)[C@@H](NC(=O)[C@H](C)NC(=O)[C@H](CC(=O)O)NC(=O)[C@H](CCC(=O)O)NC(=O)[C@H](CCC(=O)O)NC(=O)[C@@H]1CCCN1C(=O)[C@H](CCCCNC(=O)CCCCCNC(=O)CC[C@H](NC(=O)CCCCCCCCCCCCCCCCC(=O)O)C(=O)O)NC(=O)[C@H](CCC(=O)O)NC(=O)[C@@H]1CCCN1C(=O)[C@H](C)NC(=O)CC(C)C)[C@@H](C)O)C(=O)N[C@@H](CCC(N)=O)C(=O)N[C@@H](CCCNC(=N)N)C(=O)N[C@@H](Cc1ccc(O)cc1)C(=O)N[C@@H](Cc1ccc(O)cc1)C(=O)N[C@@H](CCC(=O)O)C(=O)N[C@@H](CO)C(=O)N[C@@H](CC(C)C)C(=O)N[C@@H](CCCNC(=N)N)C(=O)N[C@@H](Cc1c[nH]cn1)C(=O)N[C@@H](Cc1ccc(O)cc1)C(=O)N[C@@H](Cc1ccc(O)cc1)C(=O)N[C@@H](CC(N)=O)C(=O)N[C@@H](Cc1c[nH]c2ccccc12)C(=O)N[C@@H](CC(C)C)C(=O)N[C@H](C(=O)N[C@@H](CCCNC(=N)N)C(=O)N[C@@H](CCC(N)=O)C(=O)N[C@@H](CCCNC(=N)N)C(=O)N[C@@H](Cc1ccc(O)cc1)C(N)=O)[C@@H](C)O [Compound 191, N{alpha-4}-(3-methylbutanoyl)-N{epsilon-7}-(6-[(4S)-4-carboxy-4-(17-carboxyheptadecanamido)butanamido]hexanoyl)-[4A,7K,9E,13T,17I,18Q,22E,28Y,30W,31L]-hPYY(4-36)] | >10.0 | >10.0 | 8.32
CC(C)CC(=O)N[C@@H](C)C(=O)N1CCC[C@H]1C(=O)N[C@@H](CCC(=O)O)C(=O)N[C@@H](CCCCNC(=O)CCCCCNC(=O)CC[C@H](NC(=O)CCCCCCCCCCCCCCCCC(=O)O)C(=O)O)C(=O)N1CCC[C@H]1C(=O)N[C@@H](CCC(=O)O)C(=O)N[C@@H](C)C(=O)N[C@@H](CC(=O)O)C(=O)N[C@@H](C)C(=O)N[C@@H](CO)C(=O)N1CCC[C@H]1C(=O)N[C@@H](CCC(=O)O)C(=O)N[C@@H](CCC(=O)O)C(=O)N[C@H](C(=O)N[C@@H](CCC(N)=O)C(=O)N[C@@H](CCCNC(=N)N)C(=O)N[C@@H](Cc1ccc(O)cc1)C(=O)N[C@@H](Cc1ccc(O)cc1)C(=O)N[C@H](C(=O)N[C@@H](CO)C(=O)N[C@@H](CC(C)C)C(=O)N[C@@H](CCCNC(=N)N)C(=O)N[C@@H](Cc1c[nH]cn1)C(=O)N[C@@H](Cc1ccc(O)cc1)C(=O)N[C@@H](Cc1ccc(O)cc1)C(=O)N[C@@H](CC(N)=O)C(=O)N[C@@H](Cc1c[nH]c2ccccc12)C(=O)N[C@@H](CC(C)C)C(=O)N[C@H](C(=O)N[C@@H](CCCNC(=N)N)C(=O)N[C@@H](CCC(N)=O)C(=O)N[C@@H](CCCNC(=N)N)C(=O)N[C@@H](Cc1ccc(O)cc1)C(N)=O)[C@@H](C)O)C(C)C)[C@@H](C)O [Compound 13, N{alpha-4}-(3-methylbutanoyl)-N{epsilon-7}-(6-[(4S)-4-carboxy-4-(17-carboxyheptadecanamido)butanamido]hexanoyl)[4A,7K,9E,10A,17T,18Q,22V,28Y,30W,31L]-hPYY(4-36)] | 10.0 | 10.0 | 1.53
CC(C)CC(=O)N[C@@H](C)C(=O)N1CCC[C@H]1C(=O)N[C@@H](CCC(=O)O)C(=O)N[C@@H](CCCCNC(=O)CCCCCNC(=O)CC[C@H](NC(=O)CCCCCCCCCCCCCCCCC(=O)O)C(=O)O)C(=O)N1CCC[C@H]1C(=O)N[C@@H](CCC(=O)O)C(=O)N[C@@H](CCC(=O)O)C(=O)N[C@@H](CC(=O)O)C(=O)N[C@@H](C)C(=O)N[C@H](C(=O)N[C@@H](CO)C(=O)N[C@@H](CCC(=O)O)C(=O)N[C@@H](CCC(=O)O)C(=O)N[C@@H](CC(C)C)C(=O)N[C@@H](CCC(N)=O)C(=O)N[C@@H](CCCNC(=N)N)C(=O)N[C@@H](Cc1ccc(O)cc1)C(=O)N[C@@H](Cc1ccc(O)cc1)C(=O)N[C@H](C(=O)N[C@@H](CO)C(=O)N[C@@H](CC(C)C)C(=O)N[C@@H](CCCNC(=N)N)C(=O)N[C@@H](Cc1c[nH]cn1)C(=O)N[C@@H](Cc1ccc(O)cc1)C(=O)N[C@@H](Cc1ccc(O)cc1)C(=O)N[C@@H](CC(N)=O)C(=O)N[C@@H](Cc1c[nH]c2ccccc12)C(=O)N[C@@H](CC(C)C)C(=O)N[C@H](C(=O)N[C@@H](CCCNC(=N)N)C(=O)N[C@@H](CCC(N)=O)C(=O)N[C@@H](CCCNC(=N)N)C(=O)N[C@@H](Cc1ccc(O)cc1)C(N)=O)[C@@H](C)O)C(C)C)[C@@H](C)O [Compound 83, N{alpha-4}-(3-methylbutanoyl)-N{epsilon-7}-(6-[(4S)-4-carboxy-4-(17-carboxyheptadecanamido)butanamido]hexanoyl)-[4A,7K,9E,13T,14S,18Q,22V,28Y,30W,31L]-hPYY(4-36)] | 10.0 | 10.0 | 6.91

Now those with a lower Ki [2], led by results:

Sol6 [1] [mg/mL] | Sol7 [1] [mg/mL] | Ki [2] [nM] | SMILES
0.0 | 0.4 | 1.25 | CC[C@H](C)[C@H](NC(=O)[C@H](CCC(=O)O)NC(=O)[C@H](CCC(=O)O)NC(=O)[C@@H]1CCCN1C(=O)[C@@H](NC(=O)[C@H](C)NC(=O)[C@H](C)NC(=O)[C@H](CCC(=O)O)NC(=O)[C@H](CCC(=O)O)NC(=O)[C@@H]1CCCN1C(=O)[C@H](CCCCNC(=O)CCCCCNC(=O)CC[C@H](NC(=O)CCCCCCCCCCCCCCCCC(=O)O)C(=O)O)NC(=O)[C@H](C)NC(=O)[C@@H]1CCCN1C(=O)[C@H](C)NC(=O)CC(C)C)[C@@H](C)O)C(=O)N[C@@H](CCC(N)=O)C(=O)N[C@@H](CCCNC(=N)N)C(=O)N[C@@H](Cc1ccc(O)cc1)C(=O)N[C@@H](Cc1ccc(O)cc1)C(=O)N[C@H](C(=O)N[C@@H](CO)C(=O)N[C@@H](CC(C)C)C(=O)N[C@@H](CCCNC(=N)N)C(=O)N[C@@H](Cc1c[nH]cn1)C(=O)N[C@@H](Cc1ccc(O)cc1)C(=O)N[C@@H](Cc1ccc(O)cc1)C(=O)N[C@@H](CC(N)=O)C(=O)N[C@@H](Cc1c[nH]c2ccccc12)C(=O)N[C@@H](CC(C)C)C(=O)N[C@H](C(=O)N[C@@H](CCCNC(=N)N)C(=O)N[C@@H](CCC(N)=O)C(=O)N[C@@H](CCCNC(=N)N)C(=O)N[C@@H](Cc1ccc(O)cc1)C(N)=O)[C@@H](C)O)C(C)C [Compound 36, N{alpha-4}-(3-methylbutanoyl)-N{epsilon-7}-(6-[(4S)-4-carboxy-4-(17-carboxyheptadecanamido)butanamido]hexanoyl)[4A,6A,7K,9E,11A,13T,17I,18Q,22V,28Y,30W,31L]-hPYY(4-36)]
0.0 | 2.4 | 1.4 | CC(C)CC(=O)N[C@@H](C)C(=O)N1CCC[C@H]1C(=O)N[C@@H](C)C(=O)N[C@@H](CCCCNC(=O)CCCCCNC(=O)CC[C@H](NC(=O)CCCCCCCCCCCCCCCCC(=O)O)C(=O)O)C(=O)N1CCC[C@H]1C(=O)N[C@@H](CCC(=O)O)C(=O)N[C@@H](CCC(=O)O)C(=O)N[C@@H](C)C(=O)N[C@@H](C)C(=O)N[C@H](C(=O)N1CCC[C@H]1C(=O)N[C@@H](CCC(=O)O)C(=O)N[C@@H](CCC(=O)O)C(=O)N[C@@H](CC(C)C)C(=O)N[C@@H](CCC(N)=O)C(=O)N[C@@H](CCCNC(=N)N)C(=O)N[C@@H](Cc1ccc(O)cc1)C(=O)N[C@@H](Cc1ccc(O)cc1)C(=O)N[C@H](C(=O)N[C@@H](CO)C(=O)N[C@@H](CC(C)C)C(=O)N[C@@H](CCCNC(=N)N)C(=O)N[C@@H](Cc1c[nH]cn1)C(=O)N[C@@H](Cc1ccc(O)cc1)C(=O)N[C@@H](Cc1ccc(O)cc1)C(=O)N[C@@H](CC(N)=O)C(=O)N[C@@H](Cc1c[nH]c2ccccc12)C(=O)N[C@@H](CC(C)C)C(=O)N[C@H](C(=O)N[C@@H](CCCNC(=N)N)C(=O)N[C@@H](CCC(N)=O)C(=O)N[C@@H](CCCNC(=N)N)C(=O)N[C@@H](Cc1ccc(O)cc1)C(N)=O)[C@@H](C)O)C(C)C)[C@@H](C)O [Compound 35, N{alpha-4}-(3-methylbutanoyl)-N{epsilon-7}-(6-[(4S)-4-carboxy-4-(17-carboxyheptadecanamido)butanamido]hexanoyl)[4A,6A,7K,9E,11A,13T,18Q,22V,28Y,30W,31L]-hPYY(4-36)]
